According to patent US20210206758A1, “NAPHTHYRIDINES AS INTEGRIN ANTAGONISTS” (GlaxoSmithKline Intellectual Property Development Limited, priority 2016, published 2021):

Assays:
Type in all cases: cell-based
αvβ3 = target: T1, αvβ3 (Homo sapiens, UniProt P05106+P06756); assay: Cell adhesion assay, K562-αvβ3 (LAP-b1); conditions: K562-αvβ3 cells, ligand LAP-b1, 2 mM MgCl2
T1 construct: expressed in transfected cells; host or cells: K562
Method: (§1) Reagents and methods utilised are as described [Ludbrook et al, Biochem. J. 2003, 369, 311 and Macdonald et al. ACS Med. Chem. Lett. 2014, 5, 1207-1212 for αvβ8 assay), with the following points of clarification. The following cell lines are used, with ligands in brackets: K562-αvβ3 (LAP-b1), K562-αvβ5 (Vitronectin), K562-αvβ6 (LAP-b1), K562-αvβ8 (LAP-b1), A549-αvβ1 (LAP-b1). The divalent cation used to facilitate adhesion is 2 mM MgCl2. Adhesion is quantified by cell labelling with the fluorescent dye BCECF-AM (Life Technologies), where cell suspensions at 3×10^6 cells/mL are incubated with 0.33 uL/mL of 30 mM BCECF-AM at 37° C. for 10 minutes, then 50 μL/well are dispensed into the 96-well assay plate. At the assay conclusion cells that adhered are lysed using 50 μL/well of 0.5% Triton X-100 in H2O to release fluorescence. Fluorescence intensity is detected using an Envision® plate reader (Perkin Elmer). For active antagonists in the assay, data is fitted to a 4 parameter logistic equation for IC50 determinations.

αvβ8 = target: T2, αvβ8 (Homo sapiens, UniProt P06756+P26012); assay: Cell adhesion assay, K562-αvβ8 (LAP-b1); conditions: K562-αvβ8 cells, ligand LAP-b1, 2 mM MgCl2
T2 construct: expressed in transfected cells; host or cells: K562
Method: as §1

αvβ1 = target: T3, αvβ1 (Homo sapiens, UniProt P05556+P06756); assay: Cell adhesion assay, A549-αvβ1 (LAP-b1); conditions: A549-αvβ1 cells, ligand LAP-b1, 2 mM MgCl2
T3 construct: host or cells: A549
Method: as §1

αvβ6 = target: T4, αvβ6 (Homo sapiens, UniProt P06756+P18564); assay: Cell adhesion assay, K562-αvβ6 (LAP-b1); conditions: K562-αvβ6 cells, ligand LAP-b1, 2 mM MgCl2
T4 construct: expressed in transfected cells; host or cells: K562
Method: as §1

αvβ5 = target: T5, αvβ5 (Homo sapiens, UniProt P06756+P18084); assay: Cell adhesion assay, K562-αvβ5 (Vitronectin); conditions: K562-αvβ5 cells, ligand Vitronectin, 2 mM MgCl2
T5 construct: expressed in transfected cells; host or cells: K562
Method: as §1

T5 sequence (P06756 31-889 limits assumed): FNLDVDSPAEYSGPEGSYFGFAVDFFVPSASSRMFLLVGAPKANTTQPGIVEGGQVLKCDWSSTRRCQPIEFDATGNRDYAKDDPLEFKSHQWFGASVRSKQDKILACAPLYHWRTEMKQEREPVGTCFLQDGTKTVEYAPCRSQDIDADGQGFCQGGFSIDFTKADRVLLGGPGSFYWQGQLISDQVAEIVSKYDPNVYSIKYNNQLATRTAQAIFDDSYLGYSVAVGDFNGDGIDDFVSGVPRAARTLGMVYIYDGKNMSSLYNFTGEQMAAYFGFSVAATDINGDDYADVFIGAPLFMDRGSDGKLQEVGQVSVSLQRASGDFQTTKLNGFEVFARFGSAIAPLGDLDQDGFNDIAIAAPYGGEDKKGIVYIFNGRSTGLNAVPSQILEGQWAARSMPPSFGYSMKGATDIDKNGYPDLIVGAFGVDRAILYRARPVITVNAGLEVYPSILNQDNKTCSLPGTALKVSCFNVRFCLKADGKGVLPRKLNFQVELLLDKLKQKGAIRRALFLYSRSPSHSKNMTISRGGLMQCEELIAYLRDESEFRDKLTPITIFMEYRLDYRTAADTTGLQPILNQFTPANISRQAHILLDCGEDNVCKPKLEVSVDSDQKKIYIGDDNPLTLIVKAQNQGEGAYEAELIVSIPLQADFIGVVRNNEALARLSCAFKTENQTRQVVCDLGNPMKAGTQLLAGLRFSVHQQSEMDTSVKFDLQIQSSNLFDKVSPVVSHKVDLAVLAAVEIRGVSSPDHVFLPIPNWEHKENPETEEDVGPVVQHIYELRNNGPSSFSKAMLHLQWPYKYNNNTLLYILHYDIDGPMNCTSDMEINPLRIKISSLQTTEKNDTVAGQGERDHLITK
T5 sequence (P06756 891-1048 partner limits assumed): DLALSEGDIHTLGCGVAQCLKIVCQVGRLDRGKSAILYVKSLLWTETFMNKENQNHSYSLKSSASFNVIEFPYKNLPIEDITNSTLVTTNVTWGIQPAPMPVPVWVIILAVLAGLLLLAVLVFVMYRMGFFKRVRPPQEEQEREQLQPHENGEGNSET
T5 sequence (P18084 24-799): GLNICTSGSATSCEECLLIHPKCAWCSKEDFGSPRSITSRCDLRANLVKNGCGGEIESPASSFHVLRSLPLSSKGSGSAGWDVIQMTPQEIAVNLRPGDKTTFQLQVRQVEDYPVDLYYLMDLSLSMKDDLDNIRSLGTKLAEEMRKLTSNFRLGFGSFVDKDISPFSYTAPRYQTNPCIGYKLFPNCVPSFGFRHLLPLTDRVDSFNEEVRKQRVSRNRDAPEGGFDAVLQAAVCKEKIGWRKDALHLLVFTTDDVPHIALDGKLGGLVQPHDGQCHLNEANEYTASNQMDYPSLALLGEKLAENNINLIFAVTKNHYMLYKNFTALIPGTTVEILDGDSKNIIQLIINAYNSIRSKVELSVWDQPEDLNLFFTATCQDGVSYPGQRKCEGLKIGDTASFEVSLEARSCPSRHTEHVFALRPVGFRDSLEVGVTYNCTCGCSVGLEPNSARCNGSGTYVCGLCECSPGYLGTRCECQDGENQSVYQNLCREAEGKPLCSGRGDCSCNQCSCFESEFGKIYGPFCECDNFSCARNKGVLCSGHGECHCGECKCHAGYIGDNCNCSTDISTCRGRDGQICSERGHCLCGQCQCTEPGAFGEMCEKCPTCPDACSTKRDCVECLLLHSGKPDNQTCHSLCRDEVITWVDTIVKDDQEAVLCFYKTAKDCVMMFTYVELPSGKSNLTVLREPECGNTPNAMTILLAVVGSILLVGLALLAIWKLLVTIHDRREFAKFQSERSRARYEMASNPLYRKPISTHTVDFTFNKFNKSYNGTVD
T4 sequence (P06756 31-889 limits assumed): as the sequence (P06756 31-889 limits assumed) above
T4 sequence (P06756 891-1048 partner limits assumed): as the sequence (P06756 891-1048 partner limits assumed) above
T4 sequence (P18564 22-788): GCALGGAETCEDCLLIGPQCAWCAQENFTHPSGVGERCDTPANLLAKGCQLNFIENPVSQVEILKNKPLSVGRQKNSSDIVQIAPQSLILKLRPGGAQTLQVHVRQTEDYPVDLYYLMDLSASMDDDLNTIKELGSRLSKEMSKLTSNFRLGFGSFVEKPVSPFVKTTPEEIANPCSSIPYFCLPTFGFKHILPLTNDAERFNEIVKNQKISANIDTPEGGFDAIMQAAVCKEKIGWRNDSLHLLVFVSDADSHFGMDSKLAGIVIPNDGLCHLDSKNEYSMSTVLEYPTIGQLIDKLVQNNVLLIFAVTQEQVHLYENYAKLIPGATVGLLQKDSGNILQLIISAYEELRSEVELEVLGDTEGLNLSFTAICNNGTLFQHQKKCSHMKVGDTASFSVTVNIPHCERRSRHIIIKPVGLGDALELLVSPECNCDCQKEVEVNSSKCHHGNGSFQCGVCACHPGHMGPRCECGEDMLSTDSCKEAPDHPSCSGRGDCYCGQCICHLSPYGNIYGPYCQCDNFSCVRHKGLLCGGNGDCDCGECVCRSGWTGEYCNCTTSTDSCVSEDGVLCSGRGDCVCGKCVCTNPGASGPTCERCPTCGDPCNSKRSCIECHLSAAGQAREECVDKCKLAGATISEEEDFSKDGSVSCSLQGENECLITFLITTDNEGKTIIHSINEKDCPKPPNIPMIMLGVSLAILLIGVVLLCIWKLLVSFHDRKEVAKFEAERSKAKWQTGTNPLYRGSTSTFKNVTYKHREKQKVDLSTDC
T1 sequence (P06756 31-889 limits assumed): as the sequence (P06756 31-889 limits assumed) above
T1 sequence (P06756 891-1048 partner limits assumed): as the sequence (P06756 891-1048 partner limits assumed) above
T1 sequence (P05106 27-788): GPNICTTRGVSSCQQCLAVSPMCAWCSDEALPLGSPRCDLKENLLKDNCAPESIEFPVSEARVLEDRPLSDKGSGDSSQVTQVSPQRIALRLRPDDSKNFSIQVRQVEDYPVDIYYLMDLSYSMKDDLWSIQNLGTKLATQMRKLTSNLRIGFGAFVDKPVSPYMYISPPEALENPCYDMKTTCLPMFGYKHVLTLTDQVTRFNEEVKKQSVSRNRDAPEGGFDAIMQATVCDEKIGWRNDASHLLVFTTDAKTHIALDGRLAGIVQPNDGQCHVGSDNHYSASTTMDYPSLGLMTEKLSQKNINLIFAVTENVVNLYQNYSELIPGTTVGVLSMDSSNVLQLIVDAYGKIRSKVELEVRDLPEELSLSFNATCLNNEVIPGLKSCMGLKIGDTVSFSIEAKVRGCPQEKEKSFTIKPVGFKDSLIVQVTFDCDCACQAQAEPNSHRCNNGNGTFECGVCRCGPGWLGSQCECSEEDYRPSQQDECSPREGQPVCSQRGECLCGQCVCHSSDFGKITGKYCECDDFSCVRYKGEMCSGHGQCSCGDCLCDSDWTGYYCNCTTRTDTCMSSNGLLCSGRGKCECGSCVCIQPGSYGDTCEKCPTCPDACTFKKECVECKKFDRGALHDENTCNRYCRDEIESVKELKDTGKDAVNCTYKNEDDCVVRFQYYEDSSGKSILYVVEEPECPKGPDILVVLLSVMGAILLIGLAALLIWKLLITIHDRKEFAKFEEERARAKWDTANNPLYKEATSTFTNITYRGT
T2 sequence (P06756 31-889 limits assumed): as the sequence (P06756 31-889 limits assumed) above
T2 sequence (P06756 891-1048 partner limits assumed): as the sequence (P06756 891-1048 partner limits assumed) above
T2 sequence (P26012 43-769): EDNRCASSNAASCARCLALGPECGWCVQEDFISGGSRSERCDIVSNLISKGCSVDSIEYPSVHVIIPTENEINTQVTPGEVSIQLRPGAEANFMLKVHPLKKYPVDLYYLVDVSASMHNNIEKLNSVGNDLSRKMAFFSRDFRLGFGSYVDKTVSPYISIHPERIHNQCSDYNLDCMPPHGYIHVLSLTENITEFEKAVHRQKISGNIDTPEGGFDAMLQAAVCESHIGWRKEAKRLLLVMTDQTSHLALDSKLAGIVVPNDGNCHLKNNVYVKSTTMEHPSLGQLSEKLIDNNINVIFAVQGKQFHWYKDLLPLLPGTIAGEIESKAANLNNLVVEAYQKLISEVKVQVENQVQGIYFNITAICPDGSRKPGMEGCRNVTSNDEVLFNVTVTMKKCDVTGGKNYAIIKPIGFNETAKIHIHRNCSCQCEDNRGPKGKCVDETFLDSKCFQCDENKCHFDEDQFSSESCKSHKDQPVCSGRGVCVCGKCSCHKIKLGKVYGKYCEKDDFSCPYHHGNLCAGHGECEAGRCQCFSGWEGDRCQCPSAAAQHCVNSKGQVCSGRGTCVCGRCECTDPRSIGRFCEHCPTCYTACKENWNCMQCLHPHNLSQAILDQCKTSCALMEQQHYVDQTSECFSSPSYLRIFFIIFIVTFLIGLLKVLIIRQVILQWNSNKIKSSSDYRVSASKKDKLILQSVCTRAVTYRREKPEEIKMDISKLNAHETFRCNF

## O=C(O)/C=C\C(=O)O.O=C(O)C[C@H](CN1CC[C@@](F)(CCc2ccc3c(n2)NCCC3)C1)c1cccc(O[C@H]2CCOC2)c1 [Example 19, (S)-4-((S)-3-Fluoro-3-(2-(5,6,7,8-tetrahydro-1,8-naphthyridin-2-yl)ethyl)pyrrolidin-1-yl)-3-(3-(((S)-tetrahydrofuran-3-yl)oxy)phenyl)butanoic acid (1:1) maleate salt]
αvβ3
  αvβ3 pIC50 (mean affinity, cell Adhesion Assay): 7.3
αvβ8
  αvβ8 pIC50 (mean affinity, cell Adhesion Assay): 7.4
αvβ1
  αvβ1 pIC50 (mean affinity, cell Adhesion Assay): 6.6
αvβ6
  αvβ6 pIC50 (mean affinity, cell Adhesion Assay): 8.2
αvβ5
  αvβ5 pIC50 (mean affinity, cell Adhesion Assay): 7.5
